pIC50: −log10 of the molar value.
Tested on: T-type calcium channels
Experiment: T-type calcium channel inhibitory activity (fluorometric FLIPR Fluo-4 and whole cell patch clamp)
Format: cell-based, mammalian
Settings: inhibition of T-type calcium channels; cells natively expressing or HEK-293 cells expressing recombinant channels
Protocol: T-type calcium channel inhibitory activity of some compounds of the invention was evaluated using both fluorometric as well as electrophysiological measurement methodologies, which are known to those skilled in the art. Fluorescence measurement of changes in intracellular calcium due to entry of calcium through T-type calcium channels was assessed using calcium sensitive fluorescent dyes Fluo-4 and Fluo-3. In brief, cells natively expressing T-type channels or HEK-293 cells transiently or stably expressing recombinant mammalian T-type calcium channels grown in 96-well tissue culture plates in DMEM/High glucose, Hyclone, Fetal Bovine Serum (10%), and 2 mM sodium pyruvate 2 mM (and for cells lines recombinantly expressing T-type calcium channels, G418 @ 400 mg/liter) were loaded with 4 μM Fluo-4 made up in Earls Balanced Salt Solution (EBSS). After incubation for 30 minutes at room temperature, cells were washed with low calcium (0.5 mM) EBSS to remove extracellular Fluo-4. Baseline fluorescence was measured in a FLIPR (FLuorescence Image Plate Reader) (Molecular Devices Inc) after applying test compounds at desired concentration for 5-10 minutes. The effect of test compound on calcium entry was assessed by monitoring changes in Fluo-4 fluorescence following an elevation of extracellular calcium concentration from 0.5 mM to 5 mM. […] Native cells natively expressing T-type channels or HEK-293 cells transiently or stably expressing recombinant mammalian T-type calcium channels were grown in DMEM/High glucose, Hyclone, Fetal Bovine Serum (10%), 2 mM sodium pyruvate 2 mM (and for cells lines recombinantly expressing T-type calcium channels, G418 @ 400 mg/liter) on glass coverslips in 35 mm tissue culture dishes. Experiments were performed by placing T-type calcium channels expressing cells in a recording chamber perfused with EBSS (which contains (in mM): 132 NaCl, 5.4 KCl, 1.8 CaCl2, 0.8 MgCl2, 10 Hepes, 5 glucose, pH 7.4 with NaOH) on the stage of an inverted microscope. Electrical currents were measured using the whole cell configuration of the patch clamp technique (Axopatch 200B, Axon Instruments (Molecular Devices) (see Hamill et al (1981) Pflugers Arch. 1981 391:85-100) using 2-2.5 MOhm resistance glass pipettes filled with 135 CsF, 5 CsCl, 5 NaCl, 5 EGTA, 10 HEPES, pH 7.3 with CsOH, Osmolarity ˜288 mOsm. Test compound effects were typically assessed under conditions in which approximately half of the available channels were inactivated either by an 8 second conditioning depolarization from a holding potential of −100 mV to a potential ranging from −70 mV to −60 mV or by continually holding the membrane potential at −70 mV. Test compounds were assessed for their ability to reduce the amplitude of the inward T-type calcium current elicited by a 100 ms step depolarization −20 or −30 mV.

pIC50 | Compound
5.00 to 6.00 | CCOc1cccc(S(=O)(=O)c2cnc(Nc3cc(C#CCOC)nc(C)n3)s2)c1 [Example 29, [5-(3-Ethoxy-benzenesulfonyl)-thiazol-2-yl]-[6-(3-methoxy-prop-1-ynyl)-2-methyl-pyrimidin-4-yl]-amine]
6.00 to 9.00 | CCOc1cccc(S(=O)(=O)c2cnc(Nc3nc(C)nc(OCCN(C)C)c3F)s2)c1 [Example 27, [6-(2-Dimethylamino-ethoxy)-5-fluoro-2-methyl-pyrimidn-4-yl]-[5-(3-ethoxy-benzenesulfonyl)-thiazol-2-yl]-amine]
6.00 to 9.00 | CCOc1cccc(S(=O)(=O)c2cnc(Nc3nc(C)nc(OCCOC)c3F)s2)c1 [Example 25, N-[5-(3-ethoxy-benzenesulfonyl)-thiazol-2-yl]-[5-fluoro-6-(2-methoxy-ethoxy)-2-methyl-pyrimidin-4-yl]-amine]
6.00 to 9.00 | CCOc1cccc(S(=O)(=O)c2cnc(Nc3cc(CCCOC)nc(C)n3)s2)c1 [Example 32, [5-(3-Ethoxy-benzenesulfonyl)-thiazol-2-yl]-[6-(3-methoxy-propyl)-2-methyl-pyrimidin-4-yl]-amine]
6.00 to 9.00 | CCOc1cccc(S(=O)(=O)c2cnc(Nc3cc(C#CC(C)(C)N(C)C(=O)OC(C)(C)C)nc(C)n3)s2)c1 [Example 31, (3-{6-[5-(3-Ethoxy-benzenesulfonyl)-thiazol-2ylamino]-2-methyl-pyrimidin-4-yl}-1,1-dimethyl-prop-2-ynyl)-methyl-carbamic acid tert-butyl ester]
6.00 to 9.00 | CCOc1cccc(S(=O)(=O)c2cnc(Nc3cc(OCCN(C)C)nc(C(F)(F)F)n3)s2)c1 [Example 28, [6-(2-Dimethylamino-ethoxy)-2-trifluormethyl-pyrimidin-4-yl]-[5-(3-Ethoxy-benzenesulfonyl)-thiazol-2-yl]-amine]
6.00 to 9.00 | CCOc1cccc(S(=O)(=O)c2cnc(Nc3nc(C)nc(OCCN4CCCC4)c3F)s2)c1 [Example 24, [5-(3-Ethoxy-benzenesulfonyl)-thiazol-2-yl]-[5-fluoro-2-methyl-6-(2-pyrrolidin-1-yl-ethoxy)-pyrimidin-4-yl]-amine]
6.00 to 9.00 | CCOc1cccc(S(=O)(=O)c2cnc(Nc3cc(C#CCN(C)C(=O)OC(C)(C)C)nc(C)n3)s2)c1 [Example 30, (3-{6-[5-(3-Ethoxy-benzenesulfonyl)-thiazol-2ylamino]-2-methyl-pyrimidin-4-yl}-prop-2-ynyl)-methyl-carbamic acid tert-butyl ester]
3.00 to 5.00 | CCOc1cccc(S(=O)(=O)c2cnc(Nc3nc(C)nc(OCCC4CCCC4)c3F)s2)c1 [Example 26, [6-(2-Cyclopentyl-ethoxy)-5-fluoro-2-methyl-pyrimidn-4-yl]-[5-(3-ethoxy-benzenesulfonyl)-thiazol-2-yl]-amine]
6.00 to 9.00 | CCOc1cccc(S(=O)(=O)c2cnc(Nc3cc(OCCOC)nc(C)n3)s2)c1 [Example 23, N-[5-(3-ethoxy-benzenesulfonyl)-thiazol-2-yl]-[6-(2-methoxy-ethoxy)-2-methyl-pyrimidin-4-yl]-amine]

More lines, now with the values behind:

Compound | pIC50
[5-(3-Ethoxy-benzenesulfonyl)-thiazol-2-yl]-[6-(3-methylamino)propyl)-2-methyl-pyrimidin-4-yl]-amine [Example 35] | 6.00 to 9.00
CCOc1cccc(S(=O)(=O)c2cnc(Nc3nc(C)nc(NCCN4CCCC4)c3F)s2)c1 [Example 12, N-[5-(3-Ethoxy-benzenesulfonyl)-thiazol-2-yl]-5-fluoro-2-methyl-N′-(2-pyrrolidin-1-yl-ethyl)-pyrimidine-4,6-diamine] | 6.00 to 9.00
CCOc1cccc(S(=O)(=O)c2cnc(Nc3cc(OC[C@H]4CCCN4)nc(C)n3)s2)c1 [Example 21, N-[5-(3-ethoxy-benzenesulfonyl)-thiazol-2-yl]-[2-methyl-((6R)-1-pyrrolidin-2-yl-methoxy)pyrimidin-4-yl]-amine] | 6.00 to 9.00
CCOc1cccc(S(=O)(=O)c2cnc(Nc3nc(C)nc(NCC(C)(C)N)c3F)s2)c1 [Example 14, N-(2-Amino-2-methyl-propyl)-N′-[5-(3-ethoxy-benzenesulfonyl)-thiazol-2-yl]-5-fluoro-2-methyl-pyrimidine-4,6-diamine] | 6.00 to 9.00
CCOc1cccc(S(=O)(=O)c2cnc(Nc3cc(NCC(C)(C)N)nc(C)n3)s2)c1 [Example 6, N-(2-Amino-2-methyl-propyl)-N′-[5-(3-ethoxy-benzenesulfonyl)-thiazol-2-yl]-2-methyl-pyrimidine-4,6-diamine] | 6.00 to 9.00
CCOc1cccc(S(=O)(=O)c2cnc(Nc3cc(NCCN(C)C)ncn3)s2)c1 [Example 3, N-(2-Dimethylamino-ethyl)-N′-[5-(3-ethoxy-benzenesulfonyl)-thiazol-2-yl]-pyrimidine-4,6-diamine] | 6.00 to 9.00
CCOc1cccc(S(=O)(=O)c2cnc(Nc3cc(NCCOC)ncn3)s2)c1 [Example 4, N-[5-(3-Ethoxy-benzenesulfonyl)-thiazol-2-yl]-N′-(2-methoxy-ethyl)-pyrimidine-4,6-diamine] | 5.00 to 6.00
CCOc1cccc(S(=O)(=O)c2cnc(Nc3cc(OC4CCNC4)nc(C)n3)s2)c1 (centres unmarked) [Example 22, N-[5-(3-ethoxy-benzenesulfonyl)-thiazol-2-yl]-[2-methyl-6-(pyrrolidin-3-yloxy)pyrimidin-4-yl]-amine] | 6.00 to 9.00
CCOc1cccc(S(=O)(=O)c2cnc(Nc3cc(NCCOC)nc(C)n3)s2)c1 [Example 7, N-[5-(3-ethoxy-benzenesulfonyl)-thiazol-2-yl]-N′-(2-methoxy-ethyl)-2-methyl-pyrimidine-4,6-diamine] | 5.00 to 6.00
CCOc1cccc(S(=O)(=O)c2cnc(Nc3cc(NCC4(N)CCCCC4)nc(C)n3)s2)c1 [Example 11, N-(1-Amino-cyclohexylmethyl)-N′-[5-(3-ethoxy-benzenesulfonyl)-thiazol-2-yl]-2-methyl-pyrimidine-4,6-diamine] | 6.00 to 9.00
CCOc1cccc(S(=O)(=O)c2cnc(Nc3cc(NCCN4CCCC4)nc(C)n3)s2)c1 [Example 9, N-[5-(3-ethoxy-benzenesulfonyl)-thiazol-2-yl]-2-methyl-N′-(2-pyrrolidin-1-yl-ethyl)-pyrimidine-4,6-diamine] | 6.00 to 9.00
CCOc1cccc(S(=O)(=O)c2cnc(Nc3cc(OCCN4CCCC4)nc(C)n3)s2)c1 [Example 20, [5-(3-Ethoxy-benzenesulfonyl)-thiazol-2-yl]-[2-methyl-6-(2-pyrrolidin-1-yl-ethoxy)-pyrimidin-4-yl]-amine] | 6.00 to 9.00
CCOc1cccc(S(=O)(=O)c2cnc(Nc3cc(NCC(C)(C)N)nc(C(F)(F)F)n3)s2)c1 [Example 18, N-(2-Amino-2-methyl-propyl)-N′-[5-(3-ethoxy-benzenesulfonyl)-thiazol-2-yl]-2-trifluoromethyl-pyrimidine-4,6-diamine] | 6.00 to 9.00
CCOc1cccc(S(=O)(=O)c2cnc(Nc3cc(NCCN4CCCC4)ncn3)s2)c1 [Example 2, N-(2-Pyrrolidin-1-ethyl)-N′-[5-(3-ethoxy-benzenesulfonyl)-thiazol-2-yl]-pyrimidine-4,6-diamine] | 6.00 to 9.00
CCOc1cccc(S(=O)(=O)c2cnc(Nc3cc(N(C)CCOC)ncn3)s2)c1 [Example 5, N-[5-(3-Ethoxy-benzenesulfonyl)-thiazol-2-yl]-N′-(2-methoxy-ethyl)-N′-methyl-pyrimidine-4,6-diamine] | 5.00 to 6.00
CCOc1cccc(S(=O)(=O)c2cnc(Nc3cc(NCC[C@H]4CCNC4)nc(C)n3)s2)c1 [Example 10, N-[5-(3-ethoxy-benzenesulfonyl)-thiazol-2-yl]-2-methyl-N′-(R)-(pyrrolidin-3-yl-ethyl)-pyrimidine-4,6-diamine] | 6.00 to 9.00
CCOc1cccc(S(=O)(=O)c2cnc(Nc3cc(NCCOC)nc(C(F)(F)F)n3)s2)c1 [Example 17, N-[5-(3-ethoxy-benzenesulfonyl)-thiazol-2-yl]-N′-(2-methoxy-ethyl)-2-trifluoromethyl-pyrimidine-4,6-diamine] | 6.00 to 9.00
CCOc1cccc(S(=O)(=O)c2cnc(N(CCCN3CCOCC3)c3nc(C)nc(NCCOC)c3F)s2)c1 [Example 15, N-[5-(3-ethoxy-benzenesulfonyl)-thiazol-2-yl]-5-fluoro-N′-(2-methoxy-ethyl)-2-methyl-N-(3′-morpholin-4-yl-propyl)-pyrimidine-4,6-diamine] | 6.00 to 9.00
CCOc1cccc(S(=O)(=O)c2cnc(Nc3cc(NCCN4CCCC4)nc(C(F)(F)F)n3)s2)c1 [Example 16, N-[5-(3-Ethoxy-benzenesulfonyl)-thiazol-2-yl]-N′-(2-pyrrolidin-1-yl-ethyl)-2-trifluoromethyl-pyrimidine-4,6-diamine] | 6.00 to 9.00

Reference: patent US20070197523A1, “CALCIUM CHANNEL ANTAGONISTS” (ICAGEN, INC., priority 2005, published 2007)
